These results are taken from patent publication US8299056B2 (Signal Pharmaceuticals, LLC, priority 2008, dated 2012).

One experiment deals with T1, Syk (Homo sapiens, UniProt P43405).
T1 construct: purchased Carna Biosciences
Nature of the experiment: Syk HTRF assay. Conditions: IC50 activity level, read-out: Activity Level. Format: biochemical. The gist of the method:
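HTRF kinase assay in HEPES pH 7.6 buffer with MgCl2, DTT and Triton X100; start mix of 87.5 μM ATP and 80 nM biotinylated peptide, 1 h at room temperature. EDTA stop, then Eu-anti-phosphotyrosine/streptavidin-DyLight 647 detection, read as 665/615 nm emission ratio.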
With `O=C(c1ccccc1)c1cccc2nc(Nc3ccccc3)nn12` [Example 509, phenyl(2-(phenylamino)-[1,2,4]triazolo[1,5-a]pyridin-5-yl)methanone], the IC50 fell in the range of 1000 to 10000 nM.

Consider `CN(C)c1cccc2nc(Nc3ccccc3)nn12` [Example 477, N^5,N^5-dimethyl-N^2-phenyl-[1,2,4]triazolo[1,5-a]pyridin-2,5-diamine], for which the IC50 lay within 1000 to 10000 nM.

For `c1ccc(Nc2nc3cccc(CC4CCCNC4)n3n2)cc1` (stereo not shown) [Example 478, N-phenyl-5-(piperidin-3-ylmethyl)-[1,2,4]triazolo[1,5-a]pyridin-2-amine], the IC50 fell in the range of 250 to 500 nM.

As for `Cc1n[nH]c2ncc(Nc3nc4cccc(CC5CCOCC5)n4n3)cc12` [Example 544, 3-methyl-N-(5-((tetrahydro-2H-pyran-4-yl)methyl)-[1,2,4]triazolo[1,5-a]pyridin-2-yl)-1H-pyrazolo[3,4-b]pyridin-5-amine], the IC50 lay within 500 to 1000 nM.

As for `c1ccc(Nc2nc3cccc(Nc4ccccn4)n3n2)cc1` [Example 484, N^2-phenyl-N^5-(pyridin-2-yl)-[1,2,4]triazolo[1,5-a]pyridin-2,5-diamine], the IC50 lay within 500 to 1000 nM.

Consider `c1ccc(Nc2nc3cccc(-c4ccnc(N5CCNCC5)c4)n3n2)cc1` [Example 520, N-phenyl-5-(2-(piperazin-1-yl)pyridin-4-yl)-[1,2,4]triazolo[1,5-a]pyridin-2-amine], for which the IC50 fell in the range of 1000 to 10000 nM.

Consider `Nc1n[nH]c2cc(Nc3nc4cccc(N[C@H]5CCCNC5)n4n3)ccc12` [Example 451, (S)-N^2-(3-amino-1H-indazol-6-yl)-N^5-(piperidin-3-yl)-[1,2,4]triazolo[1,5-a]pyridine-2,5-diamine], for which the IC50 was in the range of 0.005 to 250 nM.

On to `CNCc1nc2ccc(-c3cccc4nc(Nc5ccc(C(F)(F)F)cc5)nn34)cc2[nH]1` [Example 440, 5-(2-((methylamino)methyl)-1H-benzo[d]imidazol-6-yl)-N-(4-(trifluoromethyl)phenyl)-[1,2,4]triazolo[1,5-a]pyridin-2-amine], for which the IC50 lay in the range of 0.005 to 250 nM.

In the case of `O=C1NCc2c1cccc2-c1cccc2nc(Nc3ccccc3)nn12` [Example 499, 4-(2-(phenylamino)-[1,2,4]triazolo[1,5-a]pyridin-5-yl)-isoindolin-1-one], the IC50 lay within 1000 to 10000 nM.

Regarding `O[C@@H]1CCC[C@@H]1Nc1cccc2nc(Nc3ccc(C(F)(F)F)cc3)nn12` [Example 406, (1R,2S)-2-(2-(4-(trifluoromethyl)phenylamino)-[1,2,4]triazolo[1,5-a]pyridin-5-ylamino)cyclopentanol], the IC50 lay within 500 to 1000 nM.

Regarding `c1cc(N[C@@H]2CCCNC2)n2nc(Nc3ccc4nn[nH]c4c3)nc2c1` [Example 455, (R)-N^2-(1H-benzo[d][1,2,3]triazol-6-yl)-N^5-(piperidin-3-yl)-[1,2,4]triazolo[1,5-a]pyridine-2,5-diamine], the IC50 lay in the range of 250 to 500 nM.

Staying with this experiment, now noted: activity levels A-D, read-out: Activity Level (IC50 in the Syk HTRF assay).
For the compound `C[C@]1(O)CC[C@H](Nc2cccc3nc(Nc4ccc(C(F)(F)F)cc4)nn23)CC1` [Example 384, cis-1-methyl-4-(2-(4-(trifluoromethyl)phenylamino)-[1,2,4]triazolo[1,5-a]pyridin-5-ylamino)cyclohexanol], the IC50 fell in the range of 0.005 to 250 nM.

Consider `COCCOc1cc(Nc2nc3cccc(N[C@H]4CC[C@@H](O)CC4)n3n2)ccc1F` [Example 210, cis-4-(2-(4-fluoro-3-(2-methoxyethoxy)phenylamino)-[1,2,4]triazolo[1,5-a]pyridin-5-ylamino)cyclohexanol], for which the IC50 was in the range of 0.005 to 250 nM.

Consider `FC(F)(F)c1ccc(Nc2nc3cccc(OC[C@@H]4CCCN4)n3n2)cc1` [Example 303, (S)-5-(pyrrolidin-2-ylmethoxy)-N-(4-(trifluoromethyl)phenyl)-[1,2,4]triazolo[1,5-a]pyridin-2-amine], for which the IC50 was in the range of 1000 to 10000 nM.

For the compound `Cc1cccc(Nc2nc3cccc(N[C@H]4CC[C@@H](O)CC4)n3n2)c1` [Example 350, cis-4-(2-(m-tolylamino)-[1,2,4]triazolo[1,5-a]pyridin-5-ylamino)cyclohexanol], the IC50 lay in the range of 0.005 to 250 nM.

As to `CNc1cc(Nc2nc3cccc(N[C@H]4CC[C@@H](O)CC4)n3n2)ccn1` [Example 366, cis-4-(2-(2-(methylamino)pyridin-4-ylamino)-[1,2,4]triazolo[1,5-a]pyridin-5-ylamino)cyclohexanol], the IC50 lay in the range of 0.005 to 250 nM.

Consider `O[C@H]1CC[C@@H](Nc2cccc3nc(Nc4ccc5cn[nH]c5c4)nn23)CC1` [Example 365, cis-4-(2-(1H-indazol-6-ylamino)-[1,2,4]triazolo[1,5-a]pyridin-5-ylamino)cyclohexanol], for which the IC50 was in the range of 0.005 to 250 nM.

Take `OC1CCN(Cc2cccc3nc(Nc4ccc(C(F)(F)F)cc4)nn23)C1` (stereo in doubt) [Example 335, (R)-1-((2-(4-(trifluoromethyl)phenylamino)-[1,2,4]triazolo[1,5-a]pyridin-5-yl)methyl)pyrrolidin-3-ol]: the IC50 was in the range of 1000 to 10000 nM.

As to `FC(F)(F)c1ccc(Nc2nc3cccc(Cc4ccncc4)n3n2)cc1` [Example 372, 5-(pyridin-4-ylmethyl)-N-(4-(trifluoromethyl)phenyl)-[1,2,4]triazolo[1,5-a]pyridin-2-amine], the IC50 lay in the range of 1000 to 10000 nM.

For the compound `O=C1CN(Cc2cccc3nc(Nc4cnc5[nH]ccc5c4)nn23)CCN1` [Example 229, 4-((2-(1H-pyrrolo[2,3-b]pyridin-5-ylamino)-[1,2,4]triazolo[1,5-a]pyridin-5-yl)methyl)piperazin-2-one], the IC50 is 0.005 to 250 nM.

As to `FC(F)(F)c1ccc(Nc2nc3cccc(CN4CCNCC4)n3n2)cc1` [Example 393, 5-(piperazin-1-ylmethyl)-N-(4-(trifluoromethyl)phenyl)-[1,2,4]triazolo[1,5-a]pyridin-2-amine], the IC50 fell in the range of 0.005 to 250 nM.

Turning to `O[C@H]1CC[C@H](CNc2cccc3nc(Nc4ccc(C(F)(F)F)cc4)nn23)CC1` [Example 375, trans-4-((2-(4-(trifluoromethyl)phenylamino)-[1,2,4]triazolo[1,5-a]pyridin-5-ylamino)methyl)cyclohexanol], the IC50 lay in the range of 1000 to 10000 nM.

`O[C@@H]1CCC[C@@H](Nc2cccc3nc(Nc4ccc(C(F)(F)F)cc4)nn23)C1` (single isomer, unassigned; enantiomer 2) [Example 224, cis-3-(2-(4-(trifluoromethyl)phenylamino)-[1,2,4]triazolo[1,5-a]pyridin-5-ylamino)cyclohexanol (enantiomer 2)]: the IC50 was in the range of 1000 to 10000 nM.

Take `NC(=O)[C@H]1CC[C@@H](Oc2cccc3nc(Nc4ccc(C(F)(F)F)cc4)nn23)CC1` [Example 344, cis-4-(2-(4-(trifluoromethyl)phenylamino)-[1,2,4]triazolo[1,5-a]pyridin-5-yloxy)cyclohexanecarboxamide]: the IC50 lay in the range of 500 to 1000 nM.

As to `Cc1n[nH]c2cc(Nc3nc4cccc(N5CC(O)C5)n4n3)ccc12` [Example 215, 1-(2-(3-methyl-1H-indazol-6-ylamino)-[1,2,4]triazolo[1,5-a]pyridin-5-yl)azetidin-3-ol], the IC50 fell in the range of 0.005 to 250 nM.

Take `OC1CCCC[C@H]1Nc1cccc2nc(Nc3ccc(C(F)(F)F)cc3)nn12` (stereo in doubt) [Example 270, (1S,2R)-2-(2-(4-(trifluoromethyl)phenylamino)-[1,2,4]triazolo[1,5-a]pyridin-5-ylamino)cyclohexanol]: the IC50 lay in the range of 1000 to 10000 nM.

Staying with this experiment, now noted: read-out: Activity Level (Syk HTRF assay IC50).
As for `c1ccc(-c2cccc3nc(Nc4ccc(N5CCOCC5)nc4)nn23)cc1` [compound 41, N-(6-morpholinopyridin-3-yl)-5-phenyl-[1,2,4]triazolo[1,5-a]pyridin-2-amine], the IC50 was in the range of 0.005 to 250 nM.

Take `NC(=O)c1ccc(Nc2nc3cccc(-c4ccccc4)n3n2)cn1` [compound 72, 5-(5-phenyl-[1,2,4]triazolo[1,5-a]pyridin-2-ylamino)picolinamide]: the IC50 fell in the range of 1000 to 10000 nM.

On to `Cc1n[nH]c2cc(Nc3nc4cccc(NC[C@H]5CC[C@H](O)C5)n4n3)ccc12` [Example 181, (1S,3S)-3-((2-(3-methyl-1H-indazol-6-ylamino)-[1,2,4]triazolo[1,5-a]pyridin-5-ylamino)methyl)cyclopentanol], for which the IC50 fell in the range of 0.005 to 250 nM.

Consider `CNC(=O)c1ccc(Nc2nc3cccc(-c4cccc(F)c4)n3n2)cc1` [compound 12, 4-(5-(3-fluorophenyl)-[1,2,4]triazolo[1,5-a]pyridin-2-ylamino)-N-methylbenzamide], for which the IC50 lay in the range of 250 to 500 nM.

For `O=C1CN(Cc2cccc3nc(Nc4ccc5c(C(F)(F)F)n[nH]c5c4)nn23)CCN1` [Example 155, 4-((2-(3-(trifluoromethyl)-1H-indazol-6-ylamino)-[1,2,4]triazolo[1,5-a]pyridin-5-yl)methyl)piperazin-2-one], the IC50 fell in the range of 0.005 to 250 nM.

In the case of `CC1(O)CN(c2cccc3nc(Nc4ccc5c(c4)NC(=O)C5(C)C)nn23)C1` [Example 171, 6-(5-(3-hydroxy-3-methylazetidin-1-yl)-[1,2,4]triazolo[1,5-a]pyridin-2-ylamino)-3,3-dimethylindolin-2-one], the IC50 was 0.005 to 250 nM.

In the case of `Cc1n[nH]c2cc(Nc3nc4cccc(CN5CC(C)(O)C5)n4n3)ccc12` [Example 169, 3-methyl-1-((2-(3-methyl-1H-indazol-6-ylamino)-[1,2,4]triazolo[1,5-a]pyridin-5-yl)methyl)azetidin-3-ol], the IC50 lay in the range of 250 to 500 nM.

Take `Nc1ccc2cc(Nc3nc4cccc(-c5ccccc5)n4n3)ccc2n1` [compound 17]: the IC50 was 0.005 to 250 nM.

Consider `CNC(=O)c1ccc(Nc2nc3cccc(-c4cccc(O)c4)n3n2)cc1` [compound 36, 4-(5-(3-hydroxyphenyl)-[1,2,4]triazolo[1,5-a]pyridin-2-ylamino)-N-methylbenzamide], for which the IC50 was 0.005 to 250 nM.

Take `Nc1noc2cc(Nc3nc4cccc(-c5ccccc5)n4n3)ccc12` [compound 44]: the IC50 fell in the range of 250 to 500 nM.

With `NCc1ccc(Nc2nc3cccc(-c4cccc(O)c4)n3n2)cc1` [compound 24, 3-(2-(4-(aminomethyl)phenylamino)-[1,2,4]triazolo[1,5-a]pyridin-5-yl)phenol], the IC50 fell in the range of 250 to 500 nM.
